Assay results as given in patent publication US20050256161A1, “Melanin concentrating hormone receptor antagonists” (priority 2003, published 2005).

How the values were obtained:
[1] = target: T1, human MCH 1 receptor (hMCH1R) (Homo sapiens, UniProt Q99705); assay: Ligand binding assay (125I native-MCH), hMCH; conditions: hMCH1R expressed in HEK 293, membranes, 0.2 nM 125I native-MCH
T1 construct: expressed in transfected cells; host or cells: HEK 293 (membrane preparation)
Protocol: (§1) Human embryonic kidney cells (293 total) expressing either human, rat, or mouse MCH receptor were harvested from 150 mm culture dishes using PBS. Spinning at 1500 rpm for 2 minutes initially pelleted cells. The resulting pellet was then homogenized in 15 mL ice cold sucrose buffer (25 mM HEPES, 0.3 M sucrose, pH 7.4) with a motorized, glass fitted, Teflon® homogenizer. The homogenate was centrifuged at 48,000×g at 4° C. for 10 minutes, resuspended in 15 mL assay buffer (25 mM HEPES, 10 mM MgCl2, 0.2% BSA, 0.1 mg/mL STI, 0.1 mg/mL Pefabloc®, 1 μM Phosphoramidon, pH 7.4) with a Tissue-Tearor® (Biospec Products) and centrifuged again at 48,000×g for 10 minutes. The pellet was homogenized for a third time in 15 mL assay buffer using the Tissue-Tearor® and again centrifuged at 48,000×g for 10 minutes. The resulting pellet was resuspended in assay buffer at a wet weight concentration of 10-20 mg/mL.
(§2) Binding assays were determined as described below using mouse, rat or human MCH 1 receptors (mMCH1R, rMCH1R, and hMCH1R, respectively) expressed in HEK 293; IC50 values were calculated.
(§3) Binding assays were performed in 96-well U-bottom plates. Membranes (100 μg tissue) were incubated at 30° C. for 90 minutes in assay buffer with various peptides in the presence of 0.2 nM 125I native-MCH (Perkin-Elmer Life Sciences, Boston, Mass.) in 100 μL total volume. Non-specific binding was assessed in the presence of 1 μM cold native-MCH. The reaction was terminated by rapid filtration through Unfilter-96 GF/C glass fiber filter plates (FilterMate® 196 Harvester, Packard Instrument Co., Meriden, Conn.) pre-soaked in PBS/0.5% BSA, followed by three washes with 300 μL ice-cold water. Bound radioactivity was determined using a TopCount® microplate scintillation and luminescence counter (Packard Instrument Co., Meriden, Conn.). Nonlinear regression analyses of drug concentration curves were performed using GraphPad Prism® (GraphPad Software, Inc., San Diego, Calif.).

rat MCH1 receptor = target: T2, rat MCH1 receptor (Rattus norvegicus, UniProt P97639); assay: rMCH FLIPR calcium mobilization functional assay; type: cell-based; conditions: CHOK1-Gqi cells, threshold 100 μM or less
T2 construct: expressed in transfected cells
Protocol: Pharmacological analyses were conducted using either a HT-PS100 device (Axiom Biotechnologies, San Diego, Calif.), which provides high-resolution dose-response fluorometric measurements of [Ca^++]i mobilization, or using a FLIPR® device (Molecular Devices, Sunnyvale, Calif.).
Materials: Pharmacological analysis was conducted using a FLIPR® device (Molecular Devices, Sunnyvale, Calif.). CHOK1-Gqi cells were stably transfected with the rat MCH1 receptor and maintained under G418 antibiotic pressure. FLIPR® assay buffer consisted of phenol red-free DMEM+2.5 mM probenecid. MCH peptide (Amgen, Inc.) was reconstituted in assay buffer and served as the positive agonist control for all experiments. Test compounds were prepared as 10 mM stocks in 100% DMSO and diluted to a top end working concentration of 10 μM in 96 well black, flat bottom, collagen-I coated plates (Becton Dickinson, Bedford, Mass.).
Methods: CHOK1-Gqi cells stably expressing MCH1R were maintained in Dulbeco's modified Eagle's medium (GIBCO/Life Technologies, Rockville, Md.) supplemented with 2 mM glutamine and 10% dialyzed fetal bovine serum (HyClone, Logan, Utah) at 37° C., 5% CO2. Cells were harvested by 10′ treatment with Versene (GIBCO/Life Technologies) followed by trituration, washing twice with cold (4° C.) hybridoma medium (Serum/Protein free, with L-glutamine, sodium bicarbonate, MOPS buffer) (Sigma-Aldrich Corp, St. Louis, Mo.) and replated onto 96 well black, flat bottom, collagen-I coated plates to a density of 10,000 cells/well. The cells were then loaded with the fluorescent calcium indicator Fura-2 (Molecular Probes, Eugene, Oreg.) at 1.6 μM for 60′ at room temperature. The loaded cells were then washed twice with 90 μl/well of wash buffer (1×HBSS, 20 mM HEPES, 2.5 mM probenecid).
Receptor-stimulated intracellular calcium responses were detected using FLIPR® by monitoring increases in the Fura-2 fluorescence response.
Test compounds were screened for MCH1R activity in the FLIPR® for both agonist and antagonist action. Agonist mode challenges were conducted at a maximum gradient concentration of 1 μM. Antagonist activity was tested by 10 min pre-incubation of cells at a compound concentration of defined to be 300× the EC50 of MCH (typically 1 μM), with subsequent introduction of MCH at a concentration 5-fold of EC50 as determined in preliminary experiments.
Schild experiments were conducted on the FLIPR® for selected compounds by co-administering antagonist compounds together with MCH peptide. Several fixed concentrations of antagonist compounds were prepared in 10-fold increments, and presented to the cells in a gradient of increasing MCH concentration. Values for compound pA2 were calculated by linear regression of MCH EC50s as a function of antagonist concentration.

[2] = target: T3, rat MCH 1 receptor (rMCH1R) (Rattus norvegicus, UniProt P97639); assay: Ligand binding assay (125I native-MCH), rMCH; conditions: rMCH1R expressed in HEK 293, membranes, 0.2 nM 125I native-MCH
T3 construct: expressed in transfected cells; host or cells: HEK 293 (membrane preparation)
Protocol: as §1, §2, §3

human MCH receptor = target: T4, human MCH receptor (Homo sapiens, UniProt Q99705); assay: hMCH FLIPR calcium mobilization functional assay; type: cell-based; conditions: threshold 100 μM or less
T4 construct: expressed in transfected cells
T4 sequence (Q99705 whole entry): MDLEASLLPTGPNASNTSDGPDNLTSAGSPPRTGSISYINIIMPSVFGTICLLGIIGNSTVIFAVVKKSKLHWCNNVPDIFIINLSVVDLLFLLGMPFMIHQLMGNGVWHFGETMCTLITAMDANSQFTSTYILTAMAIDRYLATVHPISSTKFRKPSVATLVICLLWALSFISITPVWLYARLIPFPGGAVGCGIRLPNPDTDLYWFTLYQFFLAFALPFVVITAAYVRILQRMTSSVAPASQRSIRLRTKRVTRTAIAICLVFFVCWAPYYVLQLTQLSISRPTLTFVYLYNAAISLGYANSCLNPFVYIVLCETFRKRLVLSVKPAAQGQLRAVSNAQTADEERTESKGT

T3 sequence (P97639 whole entry): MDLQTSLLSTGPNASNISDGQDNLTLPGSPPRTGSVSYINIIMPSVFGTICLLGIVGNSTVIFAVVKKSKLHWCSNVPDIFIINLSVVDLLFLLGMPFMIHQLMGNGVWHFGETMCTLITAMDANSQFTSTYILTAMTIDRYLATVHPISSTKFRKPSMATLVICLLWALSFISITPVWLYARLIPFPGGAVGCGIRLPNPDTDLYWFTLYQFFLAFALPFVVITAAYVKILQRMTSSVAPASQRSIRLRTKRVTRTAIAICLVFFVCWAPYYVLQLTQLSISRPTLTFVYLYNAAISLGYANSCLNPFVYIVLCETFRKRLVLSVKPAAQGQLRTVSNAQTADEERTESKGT
T1 sequence (Q99705 whole entry): as the sequence (Q99705 whole entry) above
T2 sequence (P97639 whole entry): as the sequence (P97639 whole entry) above

SMILES	IC50 ([1]; threshold 100 nM or less)	IC50 ([1]; threshold 100 μM or less)	Ki (rat MCH1 receptor)	IC50 ([2]; threshold 100 nM or less)	IC50 ([2]; threshold 100 μM or less)	Ki (human MCH receptor)
Cc1ccc(Oc2ccc(C(=O)NCCN3CCCC3)cc2NC(=O)Nc2cc(Cl)cc(Cl)c2)cc1C [Compound 59, 3-[3-(3,5-dichlorophenyl)ureido]-4-(3,4-dimethylphenoxy)-N-(2-pyrrolidin-1-yl-ethyl)benzamide]	≤ 0.1 µM	≤ 100 µM	≤ 100 µM	≤ 0.1 µM	≤ 100 µM	≤ 100 µM
Cc1ccc(Oc2ccc(CNCCN3CCCC3)cc2NC(=O)Nc2cccc(F)c2)cc1C [Compound 64, 1-{2-(3,4-dimethylphenoxy)-5-[(2-pyrrolidin-1-yl-ethylamino)-methyl]phenyl}-3-(3-fluorophenyl)urea]		≤ 100 µM	≤ 100 µM		≤ 100 µM	≤ 100 µM
